This is an account of results in patent publication US9193722B2, “Tri-cyclic pyrazolopyridine kinase inhibitors” (Vertex Pharmaceuticals Incorporated, priority 2008, dated 2015).

Bounds are passed on as bounds.

Common to all, as to type: biochemical
The target in assay [1] is PKC alpha kinase (Homo sapiens, UniProt P17252). Description: PKC alpha kinase inhibition, coupled-enzyme (NADH absorbance) assay, Ki. The following applies: 130 μM ATP, 4.5 nM PKC alpha kinase, 30° C. The protocol:
(§1) An assay buffer solution was prepared which consisted of 100 mM HEPES (pH 7.5), 10 mM MgCl2, 25 mM NaCl, 0.1 mM EDTA, 100 μM CaCl2 and 0.01% Brij. […] To 16 μL of this enzyme buffer, in a 384 well plate, was added 1 μL of VRT stock solution in DMSO. The mixture was allowed to equilibrate for 10 mins at 30° C. The enzyme reaction was initiated by the addition of 16 μL stock ATP solution prepared in assay buffer to a final assay concentration of 130 μM. Initial rate data was determined from the rate of change of absorbance at 340 nm (corresponding to stoichiometric consumption of NADH) using a Molecular Devices Spectramax plate reader (Sunnyvale, Calif.) over 15 mins at 30° C. […] Ki values were calculated from initial rate data by non-linear regression using the Prism software package (Prism 4.0a, Graphpad Software, San Diego, Calif.).

Assay [2] deals with PKC delta kinase (Homo sapiens, UniProt Q05655). Description: PKC delta kinase inhibition, coupled-enzyme (NADH absorbance) assay, Ki. The following applies: 150 μM ATP, 46 nM PKC delta kinase, 30° C.; read-out: Ki PKC delta. On the procedure:
as §1, with “EDTA” for “EDTA, 100 μM CaCl2”, “150” for “130”

Assay [3] has as its target PKC theta kinase (Homo sapiens, UniProt Q04759). Description: PKC theta kinase inhibition, coupled-enzyme (NADH absorbance) assay, Ki. The note with it: 240 μM ATP, 18 nM PKC theta kinase, 30° C. On the procedure:
An assay buffer solution was prepared which consisted of 100 mM HEPES (pH 7.5), 10 mM MgCl2, 25 mM NaCl, 0.1 mM EDTA and 0.01% Brij. […] To 60 μL of this enzyme buffer, in a 384 well plate, was added 2 μL of VRT stock solution in DMSO. The mixture was allowed to equilibrate for 10 mins at 30° C. […] Ki values were calculated from initial rate data by non-linear regression using the Prism software package (Prism 4.0a, Graphpad Software, San Diego, Calif.).

Chain of PKC theta kinase (Q04759 whole entry): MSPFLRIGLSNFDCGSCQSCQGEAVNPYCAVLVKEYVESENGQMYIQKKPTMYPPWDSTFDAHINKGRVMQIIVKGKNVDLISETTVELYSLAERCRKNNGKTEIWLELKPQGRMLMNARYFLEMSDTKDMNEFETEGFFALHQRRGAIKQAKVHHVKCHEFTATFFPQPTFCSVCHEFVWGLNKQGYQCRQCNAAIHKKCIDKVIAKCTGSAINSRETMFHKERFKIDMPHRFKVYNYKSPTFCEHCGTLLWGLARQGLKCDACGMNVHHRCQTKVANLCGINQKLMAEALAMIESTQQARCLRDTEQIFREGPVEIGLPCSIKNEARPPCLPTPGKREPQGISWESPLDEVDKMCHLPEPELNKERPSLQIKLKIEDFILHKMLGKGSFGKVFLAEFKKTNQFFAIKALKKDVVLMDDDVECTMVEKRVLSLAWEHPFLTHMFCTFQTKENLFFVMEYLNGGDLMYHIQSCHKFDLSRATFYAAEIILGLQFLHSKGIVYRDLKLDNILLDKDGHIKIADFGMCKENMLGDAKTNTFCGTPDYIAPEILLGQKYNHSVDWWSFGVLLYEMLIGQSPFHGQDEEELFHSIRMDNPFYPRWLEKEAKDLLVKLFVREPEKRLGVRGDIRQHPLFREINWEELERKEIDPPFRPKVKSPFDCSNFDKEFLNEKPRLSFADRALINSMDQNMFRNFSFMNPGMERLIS
Chain of PKC delta kinase (Q05655 whole entry): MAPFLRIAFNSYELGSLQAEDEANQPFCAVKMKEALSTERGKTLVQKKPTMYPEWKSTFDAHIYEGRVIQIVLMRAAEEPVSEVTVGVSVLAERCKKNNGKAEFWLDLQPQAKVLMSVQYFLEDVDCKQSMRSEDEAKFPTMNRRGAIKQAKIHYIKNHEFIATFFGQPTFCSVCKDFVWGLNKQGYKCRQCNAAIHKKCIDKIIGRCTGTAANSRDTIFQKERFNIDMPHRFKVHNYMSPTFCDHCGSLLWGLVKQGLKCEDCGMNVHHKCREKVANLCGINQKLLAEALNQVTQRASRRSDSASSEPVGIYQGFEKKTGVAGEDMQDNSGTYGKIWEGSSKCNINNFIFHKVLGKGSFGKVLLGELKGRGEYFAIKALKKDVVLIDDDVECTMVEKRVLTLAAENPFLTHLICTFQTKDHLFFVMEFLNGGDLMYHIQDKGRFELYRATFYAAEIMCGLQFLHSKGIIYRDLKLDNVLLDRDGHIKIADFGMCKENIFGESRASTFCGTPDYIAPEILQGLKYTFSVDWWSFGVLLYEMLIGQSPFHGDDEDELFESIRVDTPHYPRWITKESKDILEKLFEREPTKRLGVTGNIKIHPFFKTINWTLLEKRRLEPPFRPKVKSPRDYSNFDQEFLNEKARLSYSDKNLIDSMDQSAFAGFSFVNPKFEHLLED

In assay [1], `CC(C)[C@H]1CN(c2cccc(-c3n[nH]c4ncccc34)n2)CCN1` [Compound 62] returned a Ki below 2800 nM.

In assay [1], `CC[C@@H]1CN(c2cccc(-c3n[nH]c4ncccc34)n2)CCN1` [Compound 67] yielded a Ki below 2800 nM.

Take `COC[C@H]1CN(c2ccc(F)c(-c3n[nH]c4ncccc34)n2)CCN1` [Compound 185]: the Ki in assay [1] was above 1250 nM.

As to `CC(C)C(C)(O)C1CN(c2ccc(F)c(-c3n[nH]c4ncccc34)n2)CCN1` (centres unmarked) [Compound 205], the Ki in assay [2] and in assay [1] was above 1250 nM throughout.

Take `CC(N)[C@H]1CCCN(c2ccc(F)c(-c3n[nH]c4ncccc34)n2)C1` (some centres unmarked) [Compound 263]: the Ki was below 500 nM in assay [3] and below 2800 nM in assay [2].

In turn, `CC(C)C(C)(O)C1CN(c2cccc(-c3n[nH]c4ncccc34)n2)CCN1` (centres unmarked) [Compound 178] displayed a Ki in assay [3] below 50 nM.

In the case of `CC(C)C(C)(O)C1CN(c2ccc(F)c(-c3n[nH]c4ncccc34)n2)CCN1` (centres unmarked) [Compound 179], the Ki in assay [2] is below 500 nM; in assay [1], below 2800 nM.

`CC(C)C(C)(O)C1CN(c2ccc(Cl)c(-c3n[nH]c4ncccc34)n2)CCN1` (centres unmarked) [Compound 438]: in assay [2], the Ki is below 500 nM.

With `CC(O)(C1CC1)C1CN(c2ccc(F)c(-c3n[nH]c4ncccc34)n2)CCN1` (centres unmarked) [Compound 273], the figures for the Ki in assay [2] and in assay [1] were below 2800 nM and above 1250 nM, respectively.

`CC(C)C[C@@H]1CN(c2cccc(-c3n[nH]c4ncccc34)n2)CCN1` [Compound 235] registered a Ki in assay [1] below 2800 nM.

Turning to `CC(C)C[C@@H]1CN(c2ccc(F)c(-c3n[nH]c4ncccc34)n2)CCN1` [Compound 192], the figures for the Ki in assay [2] and in assay [1] were below 2800 nM and above 1250 nM, respectively.

As to `CC(C)C(C)(O)C1CN(c2cncc(-c3n[nH]c4ncccc34)n2)CCN1` (centres unmarked) [Compound 470], the Ki in assay [1] is below 500 nM.

In the case of `CC(C)(C)C(N)C1CCN(c2ccc(F)c(-c3n[nH]c4ncccc34)n2)C1` (centres unmarked) [Compound 422], the Ki in assay [2] was below 2800 nM.

As for `CC(O)(c1ccccc1)C1CN(c2ccc(F)c(-c3n[nH]c4ncccc34)n2)CCN1` (centres unmarked) [Compound 323], the results for the Ki in assay [3] and in assay [2] were below 50 nM and below 2800 nM, respectively.

As to `CNC(C1CCCN(c2ccc(F)c(-c3n[nH]c4ncccc34)n2)C1)C(C)(C)C` (centres unmarked) [Compound 409], the figures for the Ki in assay [3] and in assay [2] were below 50 nM and below 2800 nM, respectively.

For the compound `CC(C)CC1(C)CN(c2ccc(C(F)(F)F)c(-c3n[nH]c4ncccc34)n2)CCC1N` (centres unmarked) [Compound 158], the Ki in assay [1] was below 500 nM.

For `CCC(CC)C(N)C1CCCN(c2ccc(F)c(-c3n[nH]c4ncccc34)n2)C1` (centres unmarked) [Compound 392], the Ki in assay [2] was above 1250 nM.

For the compound `CC(C)C(C)(O)C1CN(c2ccc(F)c(-c3n[nH]c4ncccc34)n2)CCN1C` (centres unmarked) [Compound 229], the Ki in assay [2] and in assay [1] was above 1250 nM throughout.

Turning to `CC(C)(C)CC(N)C1CCCN(c2ccc(F)c(-c3n[nH]c4ncccc34)n2)C1` (centres unmarked) [Compound 318], the Ki in assay [2] was below 2800 nM.

As for `CC(C)CC1(C#N)CCN(c2ccc(F)c(-c3n[nH]c4ncccc34)n2)CC1` [Compound 417], the Ki in assay [3] was above 700 nM; in assay [1] it was above 1250 nM.

Consider `c1cc(-c2n[nH]c3ncccc23)nc(N2CCNCC2)c1` [Compound 9], for which, in assay [1], the Ki was below 2800 nM.

For `CC(C)C[C@H]1CN(c2ccc(F)c(-c3n[nH]c4ncccc34)n2)CCN1` [Compound 112], the Ki in assay [2] was below 500 nM; in assay [1] it was above 1250 nM.

In assay [3], `C[C@](O)(c1ccccc1)[C@@H]1CN(c2ccc(F)c(-c3n[nH]c4ncccc34)n2)CCN1` [Compound 276] returned a Ki below 50 nM.

With `CC(C)C(C)(O)C1CN(c2ccc(F)c(-c3n[nH]c4ncccc34)n2)CCN1` (centres unmarked) [Compound 200], the Ki in assay [2] and in assay [1] was above 1250 nM each time.

On to `CC(O)(C1CC1)C1CN(c2ccc(F)c(-c3n[nH]c4ncccc34)n2)CCN1` (centres unmarked) [Compound 272], for which the Ki in assay [2] is below 500 nM; in assay [1], above 1250 nM.

`CC(C)C(C)(O)C1CN(c2cc(CO)cc(-c3n[nH]c4ncccc34)n2)CCN1` (centres unmarked) [Compound 455]: the Ki in assay [1] is above 1250 nM.

For the compound `CC1(CN)CCN(c2ccc(C(F)(F)F)c(-c3n[nH]c4ncccc34)n2)CC1` [Compound 463], the figures for the Ki in assay [3] and in assay [1] were above 700 nM and above 1250 nM, respectively.

For `CC(C)C(C)(O)C1CN(c2ccc(F)c(-c3n[nH]c4ncccc34)n2)CCN1` (centres unmarked) [Compound 180], the Ki was below 500 nM in assay [2] and above 1250 nM in assay [1].

Turning to `CCC1CN(c2ccc(C(F)(F)F)c(-c3n[nH]c4ncccc34)n2)CCC1CN` (centres unmarked) [Compound 465], the Ki in assay [3] was below 500 nM; in assay [1] it was above 1250 nM.

For the compound `COC(C)(C(C)C)C1CN(c2ccc(F)c(-c3n[nH]c4ncccc34)n2)CCN1` (centres unmarked) [Compound 239], in assay [1], the Ki is above 1250 nM.

Turning to `CC(C)C[C@H]1CN(c2cccc(-c3n[nH]c4ncccc34)n2)CCN1` [Compound 7, (S)-3-(6-(3-isobutylpiperazin-1-yl)pyridin-2-yl)-1H-pyrazolo[3,4-b]pyridine], the Ki in assay [1] was below 2800 nM.

`N#CCCC1CN(c2ccc(C(F)(F)F)c(-c3n[nH]c4ncccc34)n2)CCC1O` (centres unmarked) [Compound 460] yielded a Ki in assay [3] below 500 nM.

`C[C@@H]1CN(c2cccc(-c3n[nH]c4ncccc34)n2)CCN1` [Compound 70] had a Ki in assay [1] above 1250 nM.

On to `NCC1CN(c2ccc(F)c(-c3n[nH]c4ncccc34)n2)CCC1O` (centres unmarked) [Compound 297], for which the Ki in assay [2] is above 1250 nM.

In the case of `CC(O)(C1CC1)C1CN(c2ccc(F)c(-c3n[nH]c4ncccc34)n2)CCN1` (centres unmarked) [Compound 271], the Ki in assay [2] was below 500 nM; in assay [1], above 1250 nM.

Take `Fc1ccc(N2CCCC(C3CCCN3)C2)nc1-c1n[nH]c2ncccc12` (centres unmarked) [Compound 315]: in assay [3], the Ki is above 700 nM.

Turning to `CC(C)C[C@H]1CN(c2cccc(-c3n[nH]c4ncccc34)n2)CC[C@H]1N` [Compound 168], the Ki in assay [1] is below 500 nM.

Compound `C[C@H]1CN(c2cccc(-c3n[nH]c4ncccc34)n2)CCN1` [Compound 19] registered a Ki in assay [1] above 1250 nM.

In the case of `C#Cc1cnc2[nH]nc(-c3cccc(N4CCCNCC4)n3)c2c1` [Compound 2], the Ki in assay [3] is below 500 nM.

For `CC(C)C(O)[C@@H]1CCCN(c2ccc(F)c(-c3n[nH]c4ncccc34)n2)C1` (some centres unmarked) [Compound 279], the Ki in assay [3] is above 700 nM.

Turning to `CC1(C#N)CCN(c2ccc(C(F)(F)F)c(-c3n[nH]c4ncccc34)n2)CC1` [Compound 415], the Ki in assay [3] was above 700 nM; in assay [1], above 1250 nM.

In assay [1], `c1ccc(C2CN(c3cccc(-c4n[nH]c5ncccc45)n3)CCN2)cc1` (centres unmarked) [Compound 21] returned a Ki below 2800 nM.

With `CC(C)C(C)(O)C1CN(c2ccc(F)c(-c3n[nH]c4ncccc34)n2)CCN1` (centres unmarked) [Compound 201], the Ki was below 500 nM in assay [2] and below 2800 nM in assay [1].

For the compound `CC(C)CC1CN(c2cncc(-c3n[nH]c4ncccc34)n2)CCC1N` (centres unmarked) [Compound 468], the figures for the Ki in assay [3] and in assay [1] were below 50 nM and below 500 nM, respectively.

With `CC(C)C(C)(O)C1CN(c2ccc(C(F)(F)F)c(-c3n[nH]c4ncccc34)n2)CCN1` (centres unmarked) [Compound 237], the Ki in assay [2] was below 2800 nM.

As to `CC(C)C(C)(O)C1CN(c2ccc(F)c(-c3n[nH]c4ncccc34)n2)CCN1` (centres unmarked) [Compound 204], the values for the Ki in assay [2] and in assay [1] were below 500 nM and above 1250 nM, respectively.

As to `CC1(C#N)CCN(c2ccc(F)c(-c3n[nH]c4ncccc34)n2)CC1` [Compound 416], the Ki in assay [3] was above 700 nM; in assay [1], above 1250 nM.
